Measured values taken from ChEMBL document CHEMBL1201862, “PubChem BioAssay data set” (2004).
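Step 1: Grow cells in 96-well plates. Step 2: Expose to compound for 48 hours at 5 concentrations. Step 3: Interpolate endpoints linearly; if unreached, use highest concentration. GI50 is the concentration that inhibits growth by half.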 Activity calls are given as the source filed them. No stated cut-off is given here; in the data, active = GI50 up to about 1.1 µM and inactive = higher.

How the values were obtained:
Test in all cases: DTP human tumour cell line panel, 48 h
NCI-H522 = tested on: NCI-H522
OVCAR-4 = tested on: OVCAR-4
SNB-19 = tested on: SNB-19
T47D = tested on: T47D
RXF 393 = tested on: RXF 393
Hs-578T = tested on: Hs-578T
KM12 = tested on: KM12
HCT-15 = tested on: HCT-15
ACHN = tested on: ACHN
MDA-N = tested on: MDA-N
HOP-92 = tested on: HOP-92
SR = tested on: SR
SK-MEL-2 = tested on: SK-MEL-2
SW-620 = tested on: SW-620
A498 = tested on: A498
EKVX = tested on: EKVX
U-251 = tested on: U-251
SK-MEL-28 = tested on: SK-MEL-28
MDA-MB-435 = tested on: MDA-MB-435
IGROV-1 = tested on: IGROV-1
TK-10 = tested on: TK-10
CCRF-CEM = tested on: CCRF-CEM
SF-295 = tested on: SF-295
HL-60 = tested on: HL-60
NCI/ADR-RES = tested on: NCI/ADR-RES
LOX IMVI = tested on: LOX IMVI
786-0 = tested on: 786-0
NCI-H226 = tested on: NCI-H226
OVCAR-3 = tested on: OVCAR-3
K562 = tested on: K562
UACC-257 = tested on: UACC-257
Malme-3M = tested on: Malme-3M
UO-31 = tested on: UO-31
HCT-116 = tested on: HCT-116
RPMI-8226 = tested on: RPMI-8226
SN12C = tested on: SN12C
NCI-H23 = tested on: NCI-H23
SNB-75 = tested on: SNB-75
UACC-62 = tested on: UACC-62
HCC 2998 = tested on: HCC 2998
M14 = tested on: M14
PC-3 = tested on: PC-3
MDA-MB-231 = tested on: MDA-MB-231
COLO 205 = tested on: COLO 205
SK-OV-3 = tested on: SK-OV-3
NCI-H460 = tested on: NCI-H460
OVCAR-8 = tested on: OVCAR-8
MOLT-4 = tested on: MOLT-4
SK-MEL-5 = tested on: SK-MEL-5
CAKI-1 = tested on: CAKI-1
HT-29 = tested on: HT-29
SF-268 = tested on: SF-268
MCF7 = tested on: MCF7
OVCAR-5 = tested on: OVCAR-5
SF-539 = tested on: SF-539
A549 = tested on: A549
HOP-62 = tested on: HOP-62

CC(C)CC(NC(=O)C(Cc1ccccc1)NC(=O)[C@H]1CC[C@H](NC(=O)C(Cc2ccc(OC(C)(C)C)cc2)NC(=O)OC(C)(C)C)C1)C(N)=O (some centres not stated)
GI50 (NCI-H522): 14.4 µM (inactive)
GI50 (OVCAR-4): 29 µM (inactive)
GI50 (SNB-19): 38.4 µM (inactive)
GI50 (T47D): 18.5 µM (inactive)
GI50 (RXF 393): 67.8 µM (inactive)
GI50 (Hs-578T): 11.5 µM (inactive)
GI50 (KM12): 20.2 µM (inactive)
GI50 (HCT-15): 18 µM
GI50 (ACHN): 39.8 µM (inactive)
GI50 (MDA-N): 19.3 µM (inactive)
GI50 (HOP-92): 23.8 µM (inactive)
GI50 (SR): 29.9 µM (inactive)
GI50 (SK-MEL-2): 20.2 µM (inactive)
GI50 (SW-620): 29.2 µM (inactive)
GI50 (A498): 39.7 µM (inactive)
GI50 (EKVX): > 100 µM (inactive)
GI50 (U-251): 14.8 µM (inactive)
GI50 (SK-MEL-28): 20.2 µM (inactive)
GI50 (MDA-MB-435): 18.7 µM (inactive)
GI50 (IGROV-1): 23.1 µM (inactive)
GI50 (TK-10): 29.3 µM (inactive)
GI50 (CCRF-CEM): 14.6 µM (inactive)
GI50 (SF-295): 28.8 µM (inactive)
GI50 (HL-60): 67 µM (inactive)
GI50 (NCI/ADR-RES): > 100 µM (inactive)
GI50 (LOX IMVI): 17.1 µM (inactive)
GI50 (786-0): 46.7 µM (inactive)
GI50 (NCI-H226): 18.6 µM (inactive)
GI50 (OVCAR-3): 25.9 µM (inactive)
GI50 (K562): 17 µM (inactive)
GI50 (UACC-257): 19.7 µM (inactive)
GI50 (Malme-3M): 26.4 µM (inactive)
GI50 (UO-31): 47 µM (inactive)
GI50 (HCT-116): 14.7 µM (inactive)
GI50 (RPMI-8226): 17.7 µM (inactive)
GI50 (SN12C): 17.7 µM (inactive)
GI50 (NCI-H23): 16.2 µM (inactive)
GI50 (SNB-75): 27.8 µM (inactive)
GI50 (UACC-62): 18.7 µM (inactive)
GI50 (HCC 2998): 14.5 µM (inactive)
GI50 (M14): 16.6 µM (inactive)
GI50 (PC-3): 18.1 µM (inactive)
GI50 (MDA-MB-231): 31.9 µM (inactive)
GI50 (COLO 205): 18.8 µM (inactive)
GI50 (SK-OV-3): 44.7 µM (inactive)
GI50 (NCI-H460): 17.3 µM (inactive)
GI50 (OVCAR-8): 18.4 µM (inactive)
GI50 (MOLT-4): 12.5 µM (inactive)
GI50 (SK-MEL-5): 1.07 µM (active)
GI50 (CAKI-1): > 100 µM (inactive)
GI50 (HT-29): 18.9 µM (inactive)
GI50 (SF-268): 24.6 µM (inactive)
GI50 (MCF7): 17.3 µM (inactive)
GI50 (OVCAR-5): 31 µM (inactive)
GI50 (SF-539): 14.4 µM (inactive)
GI50 (A549): 50.9 µM (inactive)
GI50 (HOP-62): 36.2 µM (inactive)
